Measurements: patent publication US11534410B2, “Amphotericin loaded PEGylated lipid nanoparticles and methods of use” (University of Mississippi, priority 2018, dated 2022)
Values after ≈ are worked out from the molar mass of the structure shown. Where two headings read alike, the source gives them in different places.

How the values were obtained:
[1] = Lipid screening: solubility/dispersibility of amphotericin B in lipids; type: physicochemical
Description: Lipid screening is a crucial step, in order to select the lipids with the highest drug solubility and/or dispersibility. Amphotericin B (1 mg) was added to the lipid at 75° C., upon stirring at 2000 rpm for 10 mins, and observed with naked eye as well as under the microscope for precipitation/aggregation. Amphotericin B has a relatively higher solubility at elevated temperature in Precirol™ ATO 5 (glyceryl palmitostearate) in comparison with the other lipids, such as Compritol® ATO 888 (glyceryl behenate), stearic acid, glyceryl mono stearate (GMS) and glyceryl di-stearate (Table 1). […] While screening liquid lipids, amphotericin B better dispersed/solubilized in castor oil (Table 1).

[2] = system: wild type (WT) Candida albicans (ATCC90028); test: Microdilution (CLSI) and recovery assay, antifungal/fungicidal activity; type: cell-based; settings: for MFC: recovery assay
Description: FIG. 5: Antifungal activity of amphotericin B formulations. […] Each formulation was tested at 5.0-0.01 μg/ml with 2-fold dilutions. Color bar represents relative growth. A. Antifungal activity on Day 1 post AmB formulation in wild type (WT) Candida. B. & C. Antifungal activity on Day 10 post AmB formulation in WT and AmB resistant Candida strains, respectively. Each experiment was performed in triplicates.
In vitro fungicidal activity: A microdilution experiment was performed in wild type (WT) Candida albicans (ATCC90028) and Aspergillus fumigatus (ATCC 204305) as per Clinical & Laboratory Standards Institute (CLSI) protocols^37-39. […] Recovery assay was performed for fungicidal activity at both day 1 and day 10 post preparation.

[3] = system: AmB resistant Candida strain (ATCC 200955); test: Microdilution and fungicidal assay, AmB resistant strain; type: cell-based, Candida albicans; settings: Day10
Description: Each formulation was tested at 5.0-0.01 μg/ml with 2-fold dilutions. […] B. & C. Antifungal activity on Day 10 post AmB formulation in WT and AmB resistant Candida strains, respectively. Each experiment was performed in triplicates.

[4] = cited from earlier work
[5] = system: retinal pigmented epithelial cells (ATCC ARPE-19); type: cell-based
Description: In vitro cytotoxicity evaluation: The placebo (no Amphotericin B) formulations PEG-NLC and NLC alone were tested for cytotoxicity towards the retinal pigmented epithelial cells (ATCC ARPE-19) in a concentration range of 0.03%-1%. […] They were not cytotoxic to ARPE-19 cells up to a highest concentration of 30 μg/mL, indicating a high therapeutic index.

[6] = amphotericin B (1 mg) added to the solid lipid at 75° C., 2000 rpm for 10 mins

For Castor Oil, the “Solubility/Dispersion (Liquid Lipid)” value [1] was “+”.
In the case of `CCCCCCCCCCCCCC(=O)OCC(COC(=O)CCCCCCCCCCCCC)OC(=O)CCCCCCCCCCCCC` [Dynasan 114, glyceryl trimyristate], the “Solubility/Dispersion (Solid Lipid)” value [1, 6] was “−”.
With Sesame Oil the “Solubility/Dispersion (Liquid Lipid)” value [1] was “−”.
In the case of Soy bean oil, the “Solubility/Dispersion (Liquid Lipid)” value [1] was “−”.
In the case of `CCCCCCCCCCCCCCCC(=O)OCC(COC(=O)CCCCCCCCCCCCCCC)OC(=O)CCCCCCCCCCCCCCC` [Dynasan 116, glyceryl tripalmitate], the “Solubility/Dispersion (Solid Lipid)” value [1, 6] was “−”.
For `CCCCCCCCCCCCCCCCCC(=O)OCC(O)CO` (stereo not shown) [GMS, glyceryl mono stearate], the “Solubility/Dispersion (Solid Lipid)” value [1] was “−”.
With `CCCCCCCC/C=C\CCCCCCCC(=O)O` [Oleic acid] the “Solubility/Dispersion (Liquid Lipid)” value [1] was “−”.
With `C[C@@H]1[C@H](O)[C@@H](C)/C=C/C=C/C=C/C=C/C=C/C=C/C=C/[C@H](O[C@@H]2O[C@H](C)[C@@H](O)[C@H](N)[C@@H]2O)C[C@@H]2O[C@](O)(C[C@@H](O)C[C@@H](O)[C@H](O)CC[C@@H](O)C[C@@H](O)CC(=O)O[C@H]1C)C[C@H](O)[C@H]2C(=O)O` [AmB, Amphotericin B] the MIC ([2]; Day1 post preparation) was 0.62/0.62 μg/mL, the MFC ([2]; Day1 post preparation) was 1.25/1.25 μg/mL and the MIC ([2]; Day10 post preparation) was 0.62/0.62 μg/mL. For the same compound, the MFC ([2]; Day10 post preparation) was 1.25/1.25 μg/mL, the MFC [3] was 2.5 µg/mL (≈ 2.71 µM) and the MIC [3] was 2.5 µg/mL (≈ 2.71 µM). The “log P” value [4] was 0.8 and the “solubility in water, methanol, and ethanol” value [4] was “practically insoluble”.
In the case of benzalkonium chloride, the “IC50 (cytotoxicity)” value [5] was 3.9 µg/mL.
